Activity calls are given as the source filed them. The rule behind the calls is not given here.
Tested on: CCRIS mutagenicity, Ames/micronucleus/aberration tests
Test: CCRIS mutagenicity studies
[1] = Test System: AMES SALMONELLA TYPHIMURIUM, Strain/Indicator: TA97, Metabolic Activation: NONE, Method: PREINCUBATION
[2] = Test System: AMES SALMONELLA TYPHIMURIUM, Strain/Indicator: TA98, Metabolic Activation: NONE, Method: PREINCUBATION
[3] = Test System: AMES SALMONELLA TYPHIMURIUM, Strain/Indicator: TA100, Metabolic Activation: NONE, Method: PREINCUBATION
[4] = Test System: AMES SALMONELLA TYPHIMURIUM, Strain/Indicator: TA1535, Metabolic Activation: NONE, Method: PREINCUBATION
[5] = Test System: AMES SALMONELLA TYPHIMURIUM, Strain/Indicator: TA1535, Metabolic Activation: RAT, LIVER, S-9, AROCLOR 1254 (30%), Method: PREINCUBATION

Measured: mutagenic call

Nc1ncn[nH]1
inactive: Test System: AMES SALMONELLA TYPHIMURIUM, Strain/Indicator: TA97, Metabolic Activation: HAMSTER, LIVER, S-9, AROCLOR 1254 (10 OR 30%), Method: PREINCUBATION inactive; negative | [1] inactive; negative | Test System: AMES SALMONELLA TYPHIMURIUM, Strain/Indicator: TA97, Metabolic Activation: RAT, LIVER, S-9, AROCLOR 1254 (10 OR 30%), Method: PREINCUBATION inactive; negative | Test System: AMES SALMONELLA TYPHIMURIUM, Strain/Indicator: TA98, Metabolic Activation: HAMSTER, LIVER, S-9, AROCLOR 1254 (10 OR 30%), Method: PREINCUBATION inactive; negative | [2] inactive; negative | Test System: AMES SALMONELLA TYPHIMURIUM, Strain/Indicator: TA98, Metabolic Activation: PROSTAGLANDIN H SYNTHASE, Method: PREINCUBATION inactive; negative | Test System: AMES SALMONELLA TYPHIMURIUM, Strain/Indicator: TA98, Metabolic Activation: RAT, LIVER, S-9, AROCLOR 1254 (10 OR 30%), Method: PREINCUBATION inactive; negative | Test System: AMES SALMONELLA TYPHIMURIUM, Strain/Indicator: TA100, Metabolic Activation: HAMSTER, LIVER, S-9, AROCLOR 1254 (10 OR 30%), Method: PREINCUBATION inactive; negative | [3] inactive; negative | Test System: AMES SALMONELLA TYPHIMURIUM, Strain/Indicator: TA100, Metabolic Activation: RAT, LIVER, S-9, AROCLOR 1254 (10 OR 30%), Method: PREINCUBATION inactive; negative | Test System: AMES SALMONELLA TYPHIMURIUM, Strain/Indicator: TA1535, Metabolic Activation: HAMSTER, LIVER, S-9, AROCLOR 1254 (10 OR 30%), Method: PREINCUBATION inactive; negative | [4] inactive; negative | Test System: AMES SALMONELLA TYPHIMURIUM, Strain/Indicator: TA1535, Metabolic Activation: RAT, LIVER, S-9, AROCLOR 1254 (5 OR 10%), Method: PREINCUBATION inactive; negative | [5] inactive; negative | Test System: E. COLI, Strain/Indicator: WP2 UVRA, Metabolic Activation: HAMSTER, LIVER, S-9, AROCLOR 1254, Method: STANDARD PLATE inactive; negative | Test System: E. COLI, Strain/Indicator: WP2 UVRA, Metabolic Activation: HAMSTER, LIVER, S-9, Method: STANDARD PLATE inactive; negative | Test System: E. COLI, Strain/Indicator: WP2 UVRA, Metabolic Activation: MOUSE, LIVER, S-9, AROCLOR 1254, Method: STANDARD PLATE inactive; negative | Test System: E. COLI, Strain/Indicator: WP2 UVRA, Metabolic Activation: MOUSE, LIVER, S-9, Method: STANDARD PLATE inactive; negative | Test System: E. COLI, Strain/Indicator: WP2 UVRA, Metabolic Activation: NONE, Method: STANDARD PLATE inactive; negative | Test System: E. COLI, Strain/Indicator: WP2 UVRA, Metabolic Activation: RAT, LIVER, S-9, AROCLOR 1254, Method: STANDARD PLATE inactive; negative | Test System: E. COLI, Strain/Indicator: WP2 UVRA, Metabolic Activation: RAT, LIVER, S-9, Method: STANDARD PLATE inactive; negative | Test System: MOUSE LYMPHOMA, Strain/Indicator: L5178Y (TK+/TK-), Metabolic Activation: NONE, Method: SUSPENSION/PLATE inactive; negative | Test System: MOUSE LYMPHOMA, Strain/Indicator: L5178Y (TK+/TK-), Metabolic Activation: RAT, LIVER, S-9, AROCLOR 1254, Method: SUSPENSION/PLATE inactive; negative | Test System: MOUSE LYMPHOMA, Strain/Indicator: L5178Y (TK+/TK-), Metabolic Activation: RAT, LIVER, S-9, Method: SUSPENSION/PLATE inactive; negative

O=[N+]([O-])c1c(O)c(Cl)cc(Cl)c1Cl
inactive: Test System: AMES SALMONELLA TYPHIMURIUM, Strain/Indicator: TA97, Metabolic Activation: HAMSTER, LIVER, S-9, AROCLOR 1254 (5 OR 10%), Method: PREINCUBATION inactive; negative | Test System: AMES SALMONELLA TYPHIMURIUM, Strain/Indicator: TA97, Metabolic Activation: HAMSTER, LIVER, S-9, AROCLOR 1254 (30%), Method: PREINCUBATION inactive; negative | [1] inactive; negative | Test System: AMES SALMONELLA TYPHIMURIUM, Strain/Indicator: TA97, Metabolic Activation: RAT, LIVER, S-9, AROCLOR 1254 (10%), Method: PREINCUBATION inactive; negative | Test System: AMES SALMONELLA TYPHIMURIUM, Strain/Indicator: TA97, Metabolic Activation: RAT, LIVER, S-9, AROCLOR 1254 (30%), Method: PREINCUBATION inactive; negative | Test System: AMES SALMONELLA TYPHIMURIUM, Strain/Indicator: TA98, Metabolic Activation: HAMSTER, LIVER, S-9, AROCLOR 1254 (10%), Method: PREINCUBATION inactive; negative | Test System: AMES SALMONELLA TYPHIMURIUM, Strain/Indicator: TA98, Metabolic Activation: HAMSTER, LIVER, S-9, AROCLOR 1254 (30%), Method: PREINCUBATION inactive; negative | [2] inactive; negative | Test System: AMES SALMONELLA TYPHIMURIUM, Strain/Indicator: TA98, Metabolic Activation: RAT, LIVER, S-9, AROCLOR 1254 (10%), Method: PREINCUBATION inactive; negative | Test System: AMES SALMONELLA TYPHIMURIUM, Strain/Indicator: TA98, Metabolic Activation: RAT, LIVER, S-9, AROCLOR 1254 (30%), Method: PREINCUBATION inactive; negative | Test System: AMES SALMONELLA TYPHIMURIUM, Strain/Indicator: TA100, Metabolic Activation: HAMSTER, LIVER, S-9, AROCLOR 1254 (10%), Method: PREINCUBATION inactive; negative | Test System: AMES SALMONELLA TYPHIMURIUM, Strain/Indicator: TA100, Metabolic Activation: HAMSTER, LIVER, S-9, AROCLOR 1254 (30%), Method: PREINCUBATION inactive; negative | [3] inactive; negative | Test System: AMES SALMONELLA TYPHIMURIUM, Strain/Indicator: TA100, Metabolic Activation: RAT, LIVER, S-9, AROCLOR 1254 (10%), Method: PREINCUBATION inactive; negative | Test System: AMES SALMONELLA TYPHIMURIUM, Strain/Indicator: TA100, Metabolic Activation: RAT, LIVER, S-9, AROCLOR 1254 (30%), Method: PREINCUBATION inactive; negative | Test System: AMES SALMONELLA TYPHIMURIUM, Strain/Indicator: TA1535, Metabolic Activation: HAMSTER, LIVER, S-9, AROCLOR 1254 (10%), Method: PREINCUBATION inactive; negative | Test System: AMES SALMONELLA TYPHIMURIUM, Strain/Indicator: TA1535, Metabolic Activation: HAMSTER, LIVER, S-9, AROCLOR 1254 (30%), Method: PREINCUBATION inactive; negative | [4] inactive; negative | Test System: AMES SALMONELLA TYPHIMURIUM, Strain/Indicator: TA1535, Metabolic Activation: RAT, LIVER, S-9, AROCLOR 1254 (10%), Method: PREINCUBATION inactive; negative | [5] inactive; negative | Test System: AMES SALMONELLA TYPHIMURIUM, Strain/Indicator: TA1537, Metabolic Activation: HAMSTER, LIVER, S-9, AROCLOR 1254 (30%), Method: PREINCUBATION inactive; negative | Test System: AMES SALMONELLA TYPHIMURIUM, Strain/Indicator: TA1537, Metabolic Activation: NONE, Method: PREINCUBATION inactive; negative | Test System: AMES SALMONELLA TYPHIMURIUM, Strain/Indicator: TA1537, Metabolic Activation: RAT, LIVER, S-9, AROCLOR 1254 (30%), Method: PREINCUBATION inactive; negative
